Test [1] concerns the target cAMP-dependent protein kinase catalytic subunit beta (Homo sapiens, UniProt P22694).
Test [2] concerns the target T1, RNA cytidine acetyltransferase (Homo sapiens, UniProt Q9H0A0).
T1 sequence (Q9H0A0 whole entry): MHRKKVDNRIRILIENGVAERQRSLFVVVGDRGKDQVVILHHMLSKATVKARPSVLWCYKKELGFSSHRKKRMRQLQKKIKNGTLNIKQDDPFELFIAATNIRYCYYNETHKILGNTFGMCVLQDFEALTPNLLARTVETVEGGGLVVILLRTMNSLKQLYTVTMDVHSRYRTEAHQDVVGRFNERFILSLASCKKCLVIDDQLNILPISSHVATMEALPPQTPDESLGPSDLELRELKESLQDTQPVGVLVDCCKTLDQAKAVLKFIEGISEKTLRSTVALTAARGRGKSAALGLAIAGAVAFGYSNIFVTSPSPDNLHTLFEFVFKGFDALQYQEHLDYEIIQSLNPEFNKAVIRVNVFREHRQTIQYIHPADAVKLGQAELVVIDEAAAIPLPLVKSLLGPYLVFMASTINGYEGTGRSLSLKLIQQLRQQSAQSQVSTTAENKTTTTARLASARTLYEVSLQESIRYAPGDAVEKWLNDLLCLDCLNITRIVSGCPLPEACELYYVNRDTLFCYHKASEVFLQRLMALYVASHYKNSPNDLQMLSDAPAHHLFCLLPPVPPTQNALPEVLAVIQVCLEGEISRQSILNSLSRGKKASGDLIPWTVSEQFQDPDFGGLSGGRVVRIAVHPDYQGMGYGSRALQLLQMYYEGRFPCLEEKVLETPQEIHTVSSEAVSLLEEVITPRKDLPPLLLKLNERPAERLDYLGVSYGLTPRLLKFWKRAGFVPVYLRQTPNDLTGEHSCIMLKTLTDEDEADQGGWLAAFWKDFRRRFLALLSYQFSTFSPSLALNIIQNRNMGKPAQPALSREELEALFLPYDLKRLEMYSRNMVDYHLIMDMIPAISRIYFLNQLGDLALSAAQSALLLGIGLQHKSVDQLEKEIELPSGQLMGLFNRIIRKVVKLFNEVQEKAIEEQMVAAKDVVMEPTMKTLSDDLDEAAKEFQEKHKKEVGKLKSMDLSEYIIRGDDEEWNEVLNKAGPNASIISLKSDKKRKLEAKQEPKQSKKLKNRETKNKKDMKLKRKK

For test [3], the target named is T2, Mitogen-activated protein kinase kinase kinase 5 (Homo sapiens, UniProt Q99683).
T2 sequence (Q99683 whole entry): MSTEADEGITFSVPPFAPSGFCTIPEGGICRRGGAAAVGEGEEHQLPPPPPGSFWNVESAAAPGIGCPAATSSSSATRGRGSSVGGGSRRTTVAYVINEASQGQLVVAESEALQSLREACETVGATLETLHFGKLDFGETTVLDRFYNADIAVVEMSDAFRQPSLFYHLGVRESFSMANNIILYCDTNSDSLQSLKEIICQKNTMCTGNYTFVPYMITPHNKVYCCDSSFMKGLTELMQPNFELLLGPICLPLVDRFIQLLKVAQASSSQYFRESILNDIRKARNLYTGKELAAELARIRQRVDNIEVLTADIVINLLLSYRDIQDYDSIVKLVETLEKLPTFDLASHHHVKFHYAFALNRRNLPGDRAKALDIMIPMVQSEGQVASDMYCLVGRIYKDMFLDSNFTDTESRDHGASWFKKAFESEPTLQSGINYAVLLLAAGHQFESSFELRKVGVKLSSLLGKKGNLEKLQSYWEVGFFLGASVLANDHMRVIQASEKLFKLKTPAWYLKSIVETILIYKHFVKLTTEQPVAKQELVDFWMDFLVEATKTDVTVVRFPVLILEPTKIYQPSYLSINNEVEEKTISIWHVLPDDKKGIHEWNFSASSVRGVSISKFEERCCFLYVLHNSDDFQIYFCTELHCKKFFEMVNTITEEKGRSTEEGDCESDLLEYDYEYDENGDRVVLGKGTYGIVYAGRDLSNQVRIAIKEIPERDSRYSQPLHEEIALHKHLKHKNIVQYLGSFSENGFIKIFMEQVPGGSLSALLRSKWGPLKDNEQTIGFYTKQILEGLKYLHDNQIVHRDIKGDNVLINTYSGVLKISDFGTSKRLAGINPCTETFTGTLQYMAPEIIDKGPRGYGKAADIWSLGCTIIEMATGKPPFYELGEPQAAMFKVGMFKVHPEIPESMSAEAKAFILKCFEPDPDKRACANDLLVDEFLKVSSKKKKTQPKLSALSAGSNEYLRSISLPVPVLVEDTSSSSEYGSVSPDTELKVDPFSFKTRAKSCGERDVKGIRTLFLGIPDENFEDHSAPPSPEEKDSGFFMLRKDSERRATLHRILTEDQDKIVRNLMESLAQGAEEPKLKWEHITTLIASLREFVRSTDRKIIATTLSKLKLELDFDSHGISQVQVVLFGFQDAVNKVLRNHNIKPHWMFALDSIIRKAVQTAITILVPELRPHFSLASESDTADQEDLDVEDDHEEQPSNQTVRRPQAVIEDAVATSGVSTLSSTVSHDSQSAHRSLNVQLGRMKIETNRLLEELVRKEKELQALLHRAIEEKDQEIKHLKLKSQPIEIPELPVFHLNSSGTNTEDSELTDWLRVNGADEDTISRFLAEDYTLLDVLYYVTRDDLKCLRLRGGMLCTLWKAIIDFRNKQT

The target in test [4] is T3, Adenine phosphoribosyltransferase (Homo sapiens, UniProt P07741).
T3 sequence (P07741 whole entry): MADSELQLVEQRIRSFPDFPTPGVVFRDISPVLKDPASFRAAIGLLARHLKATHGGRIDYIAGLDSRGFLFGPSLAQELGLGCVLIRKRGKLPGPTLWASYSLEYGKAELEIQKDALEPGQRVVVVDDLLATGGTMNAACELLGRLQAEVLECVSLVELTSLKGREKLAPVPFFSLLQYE

For the next test, the target named is Myosin-10 (Homo sapiens, UniProt P35580).
Test [5] addresses 5'-AMP-activated protein kinase catalytic subunit alpha-1 (Homo sapiens, UniProt Q13131).
Test [6] has as its target Receptor-interacting serine/threonine-protein kinase 3 (Homo sapiens, UniProt Q9Y572).

As a reminder, the Kd is the constant that tells how readily two partners part at equilibrium.

Calls of active or inactive are those of the source. Where only a bound is given, the exact number is not on record here.
Also: in the data inactive means no Kd found up to 30 µM.

Receptor-interacting serine/threonine-protein kinase 3, sequence (Q9Y572 whole entry): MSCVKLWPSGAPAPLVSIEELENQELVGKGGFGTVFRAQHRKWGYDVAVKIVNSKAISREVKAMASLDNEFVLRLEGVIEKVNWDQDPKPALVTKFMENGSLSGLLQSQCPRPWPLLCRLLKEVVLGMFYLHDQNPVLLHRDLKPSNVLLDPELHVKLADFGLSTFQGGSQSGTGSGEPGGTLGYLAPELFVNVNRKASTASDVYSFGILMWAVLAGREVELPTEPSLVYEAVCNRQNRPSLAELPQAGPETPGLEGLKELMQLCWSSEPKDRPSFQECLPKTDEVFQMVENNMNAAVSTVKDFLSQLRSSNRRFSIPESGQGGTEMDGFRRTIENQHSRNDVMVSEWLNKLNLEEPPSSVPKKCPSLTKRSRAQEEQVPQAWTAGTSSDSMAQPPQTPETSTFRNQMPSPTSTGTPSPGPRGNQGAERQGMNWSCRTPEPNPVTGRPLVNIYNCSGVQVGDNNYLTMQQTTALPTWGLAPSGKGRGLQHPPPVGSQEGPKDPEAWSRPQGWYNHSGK
5'-AMP-activated protein kinase catalytic subunit alpha-1, sequence (Q13131 whole entry): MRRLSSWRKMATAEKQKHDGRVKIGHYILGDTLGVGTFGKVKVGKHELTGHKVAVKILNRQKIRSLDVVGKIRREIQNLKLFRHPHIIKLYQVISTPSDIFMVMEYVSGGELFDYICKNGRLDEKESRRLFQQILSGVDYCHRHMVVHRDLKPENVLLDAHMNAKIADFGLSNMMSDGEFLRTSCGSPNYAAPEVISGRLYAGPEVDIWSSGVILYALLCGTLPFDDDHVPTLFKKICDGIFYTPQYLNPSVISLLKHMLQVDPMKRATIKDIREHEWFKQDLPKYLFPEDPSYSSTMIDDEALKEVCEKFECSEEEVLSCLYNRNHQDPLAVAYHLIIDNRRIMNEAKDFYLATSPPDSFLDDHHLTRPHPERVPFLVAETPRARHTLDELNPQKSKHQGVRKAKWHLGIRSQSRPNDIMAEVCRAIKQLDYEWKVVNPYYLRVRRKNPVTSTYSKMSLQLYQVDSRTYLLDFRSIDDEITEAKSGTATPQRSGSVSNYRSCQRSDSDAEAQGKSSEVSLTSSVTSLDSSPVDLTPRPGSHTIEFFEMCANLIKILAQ
Myosin-10, sequence (P35580 whole entry): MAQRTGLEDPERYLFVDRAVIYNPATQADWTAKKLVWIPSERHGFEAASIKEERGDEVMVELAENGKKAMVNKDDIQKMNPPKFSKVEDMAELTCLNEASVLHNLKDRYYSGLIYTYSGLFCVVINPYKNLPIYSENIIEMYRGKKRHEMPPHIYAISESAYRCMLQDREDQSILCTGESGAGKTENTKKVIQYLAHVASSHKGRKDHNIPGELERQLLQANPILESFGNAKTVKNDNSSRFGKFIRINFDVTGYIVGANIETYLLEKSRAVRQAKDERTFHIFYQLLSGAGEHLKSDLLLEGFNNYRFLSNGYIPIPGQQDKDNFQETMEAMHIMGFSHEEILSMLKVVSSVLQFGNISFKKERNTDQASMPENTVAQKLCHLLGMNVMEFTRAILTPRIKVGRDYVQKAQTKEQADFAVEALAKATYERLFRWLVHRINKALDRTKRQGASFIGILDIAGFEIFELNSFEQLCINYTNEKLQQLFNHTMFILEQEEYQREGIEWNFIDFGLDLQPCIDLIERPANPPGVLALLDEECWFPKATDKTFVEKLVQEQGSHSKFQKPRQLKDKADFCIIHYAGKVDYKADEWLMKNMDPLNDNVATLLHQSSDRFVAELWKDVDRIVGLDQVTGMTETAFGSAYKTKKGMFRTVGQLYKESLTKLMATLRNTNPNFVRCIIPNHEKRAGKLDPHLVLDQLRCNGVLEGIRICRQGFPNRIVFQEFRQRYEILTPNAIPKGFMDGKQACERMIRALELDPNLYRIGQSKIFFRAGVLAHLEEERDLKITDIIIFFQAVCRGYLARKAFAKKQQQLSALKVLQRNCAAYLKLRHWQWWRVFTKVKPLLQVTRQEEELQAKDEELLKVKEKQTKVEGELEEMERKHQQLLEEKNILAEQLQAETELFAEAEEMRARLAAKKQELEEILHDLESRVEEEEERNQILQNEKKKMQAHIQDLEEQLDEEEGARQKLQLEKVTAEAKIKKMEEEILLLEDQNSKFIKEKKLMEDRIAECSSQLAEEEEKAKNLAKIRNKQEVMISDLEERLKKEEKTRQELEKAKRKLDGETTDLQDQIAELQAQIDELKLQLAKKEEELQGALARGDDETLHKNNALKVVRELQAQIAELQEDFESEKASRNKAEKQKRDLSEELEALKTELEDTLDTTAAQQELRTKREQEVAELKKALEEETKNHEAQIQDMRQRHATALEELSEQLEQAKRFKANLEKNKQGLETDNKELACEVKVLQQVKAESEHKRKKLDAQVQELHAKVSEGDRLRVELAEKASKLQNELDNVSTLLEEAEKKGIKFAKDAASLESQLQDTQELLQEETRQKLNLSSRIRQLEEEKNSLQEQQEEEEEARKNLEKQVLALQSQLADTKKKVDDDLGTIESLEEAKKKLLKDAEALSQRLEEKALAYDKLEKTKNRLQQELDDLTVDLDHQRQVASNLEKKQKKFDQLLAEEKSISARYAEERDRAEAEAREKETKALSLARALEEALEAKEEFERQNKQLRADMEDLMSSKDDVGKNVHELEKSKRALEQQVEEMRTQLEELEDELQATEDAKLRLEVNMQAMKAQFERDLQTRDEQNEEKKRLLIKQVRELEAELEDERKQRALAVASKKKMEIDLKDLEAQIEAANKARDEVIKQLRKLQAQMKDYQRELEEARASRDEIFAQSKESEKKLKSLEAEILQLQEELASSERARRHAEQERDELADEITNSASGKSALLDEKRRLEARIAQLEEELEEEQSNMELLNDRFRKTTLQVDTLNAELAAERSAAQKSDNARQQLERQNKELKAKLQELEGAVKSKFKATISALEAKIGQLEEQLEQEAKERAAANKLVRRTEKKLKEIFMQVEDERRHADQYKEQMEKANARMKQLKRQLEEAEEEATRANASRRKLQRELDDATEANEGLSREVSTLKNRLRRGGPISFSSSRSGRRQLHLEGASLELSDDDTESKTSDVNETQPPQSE

Consider `O=C(Cc1ccc(-c2ccc(OCCN3CCOCC3)cc2)cn1)NCc1ccccc1` [TIRBANIBULIN], for which the Kd (in test [1]; in test [2]; in test [3]; in test [4]; on Myosin-10; in test [5]) was > 30 µM (inactive) in each case. Moreover, in test [6], the Kd is > 30 µM (inactive).
With `C[C@@H](NC(=O)c1ncnc(N)c1Cl)c1ncc(C(=O)Nc2cc(C(F)(F)F)c(Cl)cn2)s1` [TOVORAFENIB], the Kd (in test [1]; in test [2]; in test [3]; in test [4]; on Myosin-10; in test [5]) was > 30 µM (inactive) each time. Also, the Kd in test [6] is 1.8 µM (active).
As to `C[C@@H](N)c1ccc(C(=O)Nc2ccnc3[nH]ccc23)cc1` [Y-39983], the Kd in test [1] is > 30 µM (inactive); in test [2], > 30 µM (inactive); in test [3], 50.5 µM (active); in test [4], > 30 µM (inactive); at Myosin-10, > 30 µM (inactive); in test [5] it was > 30 µM (inactive). Besides, the Kd in test [6] was > 30 µM (inactive).
For the molecule `CN1C/C=C/CCOc2cccc(c2)-c2ccnc(n2)Nc2cccc(c2)C1` [ZOTIRACICLIB], the Kd (in test [1]; in test [2]; in test [3]; in test [4]; on Myosin-10; in test [5]) was > 30 µM (inactive) throughout. Moreover, the Kd in test [6] was > 30 µM (inactive).

The record behind these values is ChEMBL document CHEMBL3991601, “The target landscape of clinical kinase drugs” (Science, 2017).
